According to US12129223B2, “Lipids for use in lipid nanoparticle formulations” (Acuitas Therapeutics, Inc., priority 2021, dated 2024):

Experiments:
[1] = Determination of pKa of formulated lipids (TNS fluorescence assay in lipid nanoparticles); assay type: physicochemical; conditions: lipid nanoparticles (compound/DSPC/cholesterol/PEG-lipid), lipid formulated in LNP (lipid/DSPC/cholesterol/PEG-lipid), pH at half-maximal intensity
How it was run: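 LNPs (compound/DSPC/cholesterol/PEG-lipid, 50/10/38.5/1.5 or 47.5:10:40.7:1.8 mol %) diluted to 24 μM lipid in HEPES/MES/ammonium acetate/NaCl buffers, pH 2.5–11, with 1 μM TNS. Fluorescence read at room temperature, ex 321/em 445 nm. pKa taken as pH of half-maximal intensity from sigmoidal fit.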

[2] = test system: luciferase expression in the liver; experiment: Luciferase mRNA in vivo evaluation using lipid nanoparticle compositions; design: species or system mice; conditions: LNP with FLuc mRNA, tail vein injection, ng luciferase/g liver 4 hours after administration
How it was run: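 LNPs were made from cationic lipid/DSPC/cholesterol/PEG-lipid (50:10:38.5:1.5 or 47.5:10:40.7:1.8) with modified FLuc mRNA and given by tail-vein injection to mice at 1.0, 0.5 or 0.3 mg mRNA/kg. Liver luciferase was measured at 4 h by luminescence, normalized to protein and converted to ng luciferase/g liver by standard curve.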

human IgG in mouse serum = experiment: Immunoglobulin G (IgG) mRNA in vivo evaluation using lipid nanoparticle compositions; design: species or system mice; conditions: LNP with IgG mRNA, tail vein injection, serum 24 hours after administration
Protocol: A lipid of structure (I), DSPC, cholesterol and PEG-lipid are solubilized in ethanol at a molar ratio of 50:10:38.5:1.5 or 47.5:10:40.7:1.8. Lipid nanoparticles (LNP) are prepared at a total lipid to mRNA weight ratio of approximately 10:1 to 40:1. Briefly, the mRNA is diluted to 0.2 mg/mL in 10 to 50 mM citrate buffer, pH 4 or 10 to 25 mM acetate buffer, pH 4. Syringe pumps are used to mix the ethanolic lipid solution with the mRNA aqueous solution at a ratio of about 1:5 to 1:3 (vol/vol) with total flow rates above 15 mL/min. The ethanol is then removed and the external buffer replaced with PBS by dialysis. Finally, the lipid nanoparticles are filtered through a 0.2 µm pore sterile filter.
Studies are performed in 6-8 week old CD-1/ICR mice (Envigo) according to guidelines established by an institutional animal care committee (ACC) and the Canadian Council on Animal Care (CCAC). Varying doses of mRNA-lipid nanoparticle are systemically administered by tail vein injection and animals euthanized at a specific time point (e.g., 24 hours) post-administration. The whole blood is collected, and the serum subsequentially separated by centrifuging the tubes of the whole blood at 2000×g for 10 minutes at 4° C. and stored at −80° C. until use for analysis.
For immunoglobulin G (IgG) ELISA (Life Diagnostics Human IgG ELISA kit), the serum samples are diluted at 100 to 15000 folds with 1×diluent solution. 100 μL of diluted serum is dispensed into anti-human IgG coated 96-well plate in duplicate alongside human IgG standards and incubated in a plate shaker at 150 rpm at 25° C. for 45 minutes. The wells are washed 5 times with 1× wash solution using a plate washer (400 μL/well). 100 μL of HRP conjugate is added into each well and incubated in a plate shaker at the same condition above. The wells are washed 5 times again with 1× wash solution using a plate washer (400 μL/well). 100 μL of TMB reagent is added into each well and incubated in a plate shaker at the same condition above. The reaction is stopped by adding 100 μL of Stop solution to each well. The absorbance is read at 450 nm (A450) with a microplate reader. The amount of human IgG in mouse serum is determined by plotting A450 values for the assay standard against human IgG concentration.
Representative compounds of the disclosure shown in Table 2 were formulated using the following molar ratio: 50% cationic lipid/10% distearoylphosphatidylcholine (DSPC)/38.5% Cholesterol/1.5% PEG lipid 2-[2-(ω-methoxy(polyethyleneglycol2000)ethoxy]-N,N-ditetradecyl acetamide) or 47.5% cationic lipid/10% DSPC/40.7% Cholesterol/1.8% PEG lipid. Relative activity was determined by measuring luciferase expression in the liver 4 hours following administration via tail vein injection as described in Example 1 or by measuring the amount of human IgG in mouse serum as described in example 2. The activity was compared at a dose of 1.0 or 0.5 or 0.3 mg mRNA/kg and expressed as ng luciferase/g liver measured 4 hours after administration, as described in Example 1 or as μg IgG/mL serum measured 24 hours after administration, as described in Example 2. Compound numbers in Table 2 refer to the compound numbers of Table 1.

CCCCCCCCCCN(CCCCCCCCCC)C(=O)CCCCCCCN(CCCCCCO)CCCCCCCC(=O)N(CCCCCCCCCC)CCCCCCCCCC [Compound I-24, 8,8′-((6-hydroxyhexyl)azanediyl)bis(N,N-didecyloctanamide)]
pKa [1]: 6.24 | Liver Luc @ 0.3 mg/kg ([2]; 0.3 mg mRNA/kg): 9106 ± 1760 ng/g | Liver Luc @ 1.0 mg/kg ([2]; 1.0 mg mRNA/kg): 38913 ± 14318 ng/g | Serum IgG @ 0.3 mg/kg (human IgG in mouse serum; 0.3 mg mRNA/kg): 27.46 ± 9.22 µg/mL | Serum IgG @ 1.0 mg/kg (human IgG in mouse serum; 1.0 mg mRNA/kg): 112.31 ± 14.51 µg/mL
